# Results as given in paper PMC5754397, “Population pharmacokinetics of nintedanib, an inhibitor of tyrosine kinases, in patients with non-small cell lung cancer or idiopathic pulmonary fibrosis” (Cancer Chemotherapy and Pharmacology, 2017).
# Key:
# [1] = cited from earlier work
# [2] = Population pharmacokinetic analysis in healthy subjects after intravenous administration of nintedanib (one-compartment model); format: in vivo, human; details: human, plasma, estimate (RSE%)
# Source text: The pharmacokinetic profile of BIBF 1202 was best described by a one-compartment model with first-order elimination (see Online Resource Fig. S1 for model structure). To account for formation of BIBF 1202 in the intestine or via hepatic first-pass effect, a first-order absorption with lag time (ALAG2) was implemented as per nintedanib absorption. The relative bioavailability (F2) and the absorption-rate constant (k a2) were implemented as functions of nintedanib F1 and k a, respectively (substantial drop in OFV as compared to a model, where F2 and k a2 were estimated independently of F1 and k a). This parametrization accounted for correlations between nintedanib and BIBF 1202 parameters and replaced the full variance–covariance matrix which was not applied due to the sequential modeling approach used. The rate of formation of BIBF 1202 (k met) during nintedanib systemic elimination was accounted by defining it as a function of nintedanib clearance: k met = CL/V2*ffM, where CL and V2 denote the clearance and central volume of distribution of nintedanib respectively, and ffM denotes the proportion of the nintedanib elimination resulting in BIBF 1202 formation. Due to the lack of data for BIBF 1202 given as an intravenous (IV) infusion, several parameter estimates were not identifiable (ffM, BIBF 1202 apparent volume of distribution [V3/F]) and were, therefore, fixed. The value for ffM was derived from pharmacokinetic data after IV administration of nintedanib (Online Resource Table S4) and the ratio of V3/F–V2/F was fixed based on information observed in rats. […] In addition to the (inter-individual) variability of F2 induced by the variability in F1 (F2 being proportional to F1), additional IIV could be implemented for F2.
# Table S4 Structural parameters for nintedanib and BIBF 1202 from a population pharmacokinetic analysis based on healthy subjects (n=23^a, 372 observations) after intravenous administration of nintedanib
# One subject (3 mg dose) was excluded from analysis due to increasing plasma concentrations of nintedanib after end of infusion
smiles,measurement,setting,value
COC(=O)c1ccc2c(c1)NC(=O)/C2=C(\Nc1ccc(N(C)C(=O)CN2CCN(C)CC2)cc1)c1ccccc1 [nintedanib],absolute bioavailability,[1],about 5%
same,dose proportionality of total and peak systemic exposures,[1],dose-proportional
same,geometric mean terminal elimination half-life,[1],10 to 15 h
same,total fraction of nintedanib and its metabolites absorbed,[1]; estimated,23%
same,time of peak plasma concentrations after oral dosing,[1]; patients with solid tumors,2 to 4 h
same,time to steady state,[1]; twice-daily dosing,≤ 7 days
same,clearance,"[2]; healthy subjects (n=23), single intravenous nintedanib infusion 1, 3 or 6 mg, data of absolute bioavailability study [7], read-out: CL, total body clearance for nintedanib (converted)",2570 mL/min
same,Vd,"[2]; healthy subjects, intravenous nintedanib, read-out: V2, volume of distribution for nintedanib",60.9 L
